Key:
[1] = tested on: RNA polymerase II (Pol II) loading; test: Chromatin immunoprecipitation of Pol II, qPCR for TAR DNA; assay type: cell-based; conditions: U1; CBD 10 μM, Flavo 50 nM; 2-hour and 6-hour; FIG. 15C
Method: FIGS. 15A-15C are graphs and gels showing cannabidiols lower intracellular viral transcription and downstream viral products. U1 cells (1×10^6) were treated with a titration of CBD (1, 5, 10 μM) and THC (1, 5, 10 μg/mL) every day for 5 days. A) Intracellular RNA was isolated and analyzed through RT-qPCR for HIV-1 viral transcripts TAR and env. Each bar represents an average of three independent replicates. B) U1 cells (2×10^6) were treated with a titration of CBD (1, 5, 10 μM) every day for 5 days. Cells pellets were lysed, run through SDS-PAGE, and western blotted for (p-)/NF-κB, autophagosomal markers (p63, LC3), EV biogenesis marker VPS4, viral markers (gp120, Nef, p24), and Actin. C) U1 cells (5×10^6) were treated±CBD (10 μM) and Flavopiridol hydrochloride (50 nM; indicated as Flavo) and incubated for the following time points: 0 minutes, 2 hours and 6 hours. Cells were cross-linked with 1% formaldehyde solution and ChIP-ed for IgG and Pol II. ChIP DNA samples were analyzed via qPCR for TAR and env. Student's t-test was used for statistical analysis, where *p-value≤0.05; **p-value≤0.01, ***p-value≤0.001. […]
U1 monocytes were treated with CBD (10 μM) and Flavo (50 nM) for short periods (0, 2 and 6 hours) due to the fact that HIV-1 transcription activity is a rapid event that can be scored using chromatin immunoprecipitation (ChIP) assay for factor occupancy. […]

[2] = tested on: HIV-1 infected monocytes (U1); test: Western blot/densitometry of intracellular viral and ESCRT proteins in U1 cells; assay type: cell-based
Method: FIGS. 15A-15C are graphs and gels showing cannabidiols lower intracellular viral transcription and downstream viral products. U1 cells (1×10^6) were treated with a titration of CBD (1, 5, 10 μM) and THC (1, 5, 10 μg/mL) every day for 5 days. A) Intracellular RNA was isolated and analyzed through RT-qPCR for HIV-1 viral transcripts TAR and env. Each bar represents an average of three independent replicates. B) U1 cells (2×10^6) were treated with a titration of CBD (1, 5, 10 μM) every day for 5 days. Cells pellets were lysed, run through SDS-PAGE, and western blotted for (p-)/NF-κB, autophagosomal markers (p63, LC3), EV biogenesis marker VPS4, viral markers (gp120, Nef, p24), and Actin. C) U1 cells (5×10^6) were treated±CBD (10 μM) and Flavopiridol hydrochloride (50 nM; indicated as Flavo) and incubated for the following time points: 0 minutes, 2 hours and 6 hours. Cells were cross-linked with 1% formaldehyde solution and ChIP-ed for IgG and Pol II. ChIP DNA samples were analyzed via qPCR for TAR and env. Student's t-test was used for statistical analysis, where *p-value≤0.05; **p-value≤0.01, ***p-value≤0.001.
FIGS. 16A-16E are graphs showing normalized densitometry analysis of CBD lowering intracellular […] in HIV-1 infected monocytes. (A) Nef, (B) Pr55, (C) p24, (D) VPS4, and (E) CHMP6 densitometry counts were performed on the Western blot data from FIG. 4B, all of which were normalized to Actin levels.
Laemmli buffer was added to sample cell lysates (10-20 μg) or NT80/82 pellets. Lysates were heated at 95° C. for 3 min and 15 μL of sample was loaded onto a 4-20% Tris/glycine gel (Invitrogen). When analyzing NT80/82 pellets, samples were heated at 95° C. for 3 min, vortexed, and then heated two additional times to release captured material from NT80/82 beads. Following the release of captured cargo, the total sample was then loaded on to a 4-20% Tris-Glycine gel (Invitrogen). Gels were run at 100 V and transferred onto Immobilon PVDF membranes (Millipore) at 50 mA overnight. Membranes were blocked in 5% milk in PBS with 0.1% Tween-20 (PBS-T) for 2 h at 4° C., then incubated overnight at 4° C. in PBS-T with the appropriate primary antibody ((α-p24 (Cat: 4121; NIH AIDS Reagent Program), α-Nef (Cat: 3689; NIH AIDS Reagent Program), α-gp120 (Cat: 522; NIH AIDS Reagent Program), α-CD81 (Cat: EXOAB-CD81A-1; SBI), α-VPS4 (Cat: sc-32922; Santa Cruz Biotechnology), α-CHMP6 (Cat: sc-67231; Santa Cruz Biotechnology), α-Actin (ab-49900; Abcam), α-CD63 (Cat: EXOAB-CD63A-1; Systems Biosciences), α-SQSTM1/p62 (Cat: 5114; Cell Signaling Technology), α-MAP LC3 α/β (Cat: sc-398822; Santa Crux Biotechnology), α-Alix (Cat: sc-49268; Santa Cruz Biotechnology), α-ATG12 (Cat: sc-271688; Santa Cruz Biotechnology), α-Beclin 1 (Cat: sc-48341; Santa Cruz Biotechnology)). Membranes were washed with PBS-T and incubated for 2 h with the indicated HRP-conjugated secondary antibody at 4° C. HRP luminescence was activated with Clarity Western ECL Substrate (Bio-Rad) and visualized by the Molecular Imager ChemiDoc Touch system (Bio-Rad).
ImageJ software was used to conduct densitometry analysis on the kinase and western blot images. Background measurements were deducted from each lane to account for exposure, followed by normalization of each lane to each respective Actin measurements. […] Percent changes were calculated by subtracting normalized lane measurements from the normalized control lane.
This is potentially due innate differences in the abundance of these mRNAs. […]

[3] = 10 μM every day for 5 days, FIG. 16
[4] = CBD 1, 5, 10 μM every day for 5 days

SMILES: C=C(C)[C@@H]1CCC(C)=C[C@H]1c1c(O)cc(CCCCC)cc1O [CBD, 2-[1R-3-methyl-6R-(1-methylethenyl)-2-cyclohexen-1-yl]-5-pentyl-1,3-benzenediol]
- Pol II-associated TAR DNA versus untreated [1]: statistically significant decreases
- reduction in intracellular Nef (densitometry) [2, 3]: 62%
- reduction in intracellular Pr55 (densitometry) [2, 3]: 99%
- reduction in intracellular p24 (densitometry) [2, 3]: 76%
- intracellular CHMP6 (ESCRT-III) [2, 4]: slight increase
- intracellular VPS4 [2, 4]: slight increase

— patent publication US12208080B2, “Compositions and methods for modulation of extracellular vesicle release and treatment of neurological disorders” (GEORGE MASON RESEARCH FOUNDATION, INC., priority 2018, dated 2025)
